The values that follow come from ChEMBL document CHEMBL1152256, “Synthesis of Arabino glycosyl triazoles as potential inhibitors of mycobacterial cell wall biosynthesis” (2008).

One may read the MIC as the least concentration at which growth counts as inhibited.

≈ marks a conversion by molar mass, not a printed value. Calls of active or inactive are those of the source. No cut-off for these calls is given here.

For one assay, the system named is Mycobacterium tuberculosis. Put plainly: Antimycobacterial activity against Mycobacterium bovis BCG at 1 mg/mL by alamar blue assay. The format is functional, organism-based. The following applies: variant bovis BCG. In general terms: The colour change of resazurin is a common sign of viable cells or microbes.
Regarding `OC[C@H]1O[C@@H](n2cc(-c3ccccc3)nn2)[C@@H](O)[C@@H]1O`, the outcome was inactive.

In a further assay the test system is Mycobacterium tuberculosis. Nature of the assay: Antimycobacterial activity against Mycobacterium bovis BCG by alamar blue assay. The class given is functional. The following applies: variant bovis BCG.
For `CCCCCCCCCCCCCCOCc1cn([C@@H]2O[C@H](CO)[C@@H](O)[C@@H]2O)nn1`, the MIC was determined as 31 µg/mL (≈ 72.5 µM). Still for that read-out and setting: the figure for `CCCCCCCCc1cn([C@@H]2O[C@H](CO)[C@@H](O)[C@@H]2O)nn1` is 62 µg/mL (≈ 198 µM); for `CC(C)=CCC/C(C)=C/CC/C(C)=C/COCc1cn([C@@H]2O[C@H](CO)[C@@H](O)[C@@H]2O)nn1` it is 62 µg/mL (≈ 142 µM); for `CCCCCCc1cn([C@@H]2O[C@H](CO)[C@@H](O)[C@@H]2O)nn1` it is 500 µg/mL (≈ 1750 µM). Compound `NNC(=O)c1ccncc1` [ISONIAZID] registered an MIC of 0.1 µg/mL (≈ 0.729 µM). `CCCCCCCCCCc1cn([C@@H]2O[C@H](CO)[C@@H](O)[C@@H]2O)nn1` showed a minimal inhibitory concentration (MIC) of 250 µg/mL (≈ 732 µM).
